Assay results taken from paper PMC6018746, “Activation of the p53-MDM4 regulatory axis defines the anti-tumour response to PRMT5 inhibition through its role in regulating cellular splicing” (Scientific Reports, 2018).
Values joined by “and” are separate entries in the source; they are usually repeats but may differ in a detail not shown here. Equal values may be shown once. Read-outs that look alike come from different tables or passages of the source.

Tested on: panel of hematologic and solid cancer lines
Experiment: 6-day in vitro growth/death assay
Assay type: cell-based, human
Details: for IC50: read-out: gIC50
Experimental: To further develop these molecules and to guide clinical strategy, it was necessary to understand sensitivity in preclinical models by assessing the anti-tumour activity of the PRMT5 inhibitors in various cancers.
Cell lines were obtained from ATCC or DSMZ and were grown in recommended medium, which was most frequently RPMI-1640 containing 10% FBS. Cell line proliferation assays, Western blotting, qRT-PCR, and cell cycle analyses were performed as described previously[27],[28]. Antibody and gene expression reagents are as described in Supplementary Table 16. All studies were conducted in accordance with the GSK Policy on the Care, Welfare and Treatment of Laboratory Animals and were reviewed by the Institutional Animal Care and Use Committee either at GSK or by the ethical review process at the institution where the work was performed. Detailed descriptions of all methods can be found in the Supplemental Materials.

Compound CC(=O)N1CCC(Nc2cc(C(=O)NC[C@H](O)CN3CCc4ccccc4C3)ncn2)CC1 [GSK3326595] has an IC50 5637 of 69 nM, an IC50 (HCC70) of 130 nM and an IC50 (HCC1143) of 246 nM. For the same compound, the IC50 (HCC1806) was 98 nM, the IC50 (Homo sapiens, 5637) was 69.3 nM and the IC50 (Homo sapiens, HCC70, HCC70) was 130 nM. For the same compound, the IC50 (Homo sapiens, HCC1143, HCC1143) was 246 nM, the IC50 (Homo sapiens, HCC1806, HCC1806) was 97.6 nM and the IC50 (Homo sapiens, HCC1954, HCC1954) was 79.2 nM. For the same compound, the IC50 (Homo sapiens, HT-1376, HT-1376) was 17600 nM, the IC50 (Homo sapiens, J82, J82) was 29300 nM and the IC50 (Homo sapiens, JM1, JM1) was 79 nM. For the same compound, the IC50 (Homo sapiens, KMS-11, KMS-11) was 66.5 nM, the IC50 (Homo sapiens, LN-229, LN-229) was 254 nM and the IC50 (Homo sapiens, LP-1, LP1) was 1940 nM. The IC50 (Homo sapiens, MCF7, MCF-7) was 61.7 nM, the IC50 (Homo sapiens, MDA-MB-231, MDA-MB-231) was 544 nM and the IC50 (Homo sapiens, MDA-MB-453, MDA-MB-453) was 28.7 nM. It also gave an IC50 (Homo sapiens, MDA-MB-468, MDA-MB-468) of 56.5 nM, an IC50 (Homo sapiens, MINO) of 130 nM and an IC50 (Homo sapiens, Maver1, MAVER-1) of 84.9 nM. The IC50 (Homo sapiens, NCI-H526, NCI-H526) was 275 nM, the IC50 (Homo sapiens, NCI-H526-R) was 344 nM and the IC50 (Homo sapiens, NU-DHL-1, NU-DHL-1) was 333 nM. It also gave an IC50 (Homo sapiens, NU-DUL-1, NU-DUL-1) of 333 nM, an IC50 (Homo sapiens, PER-403, PER-403) of 38.3 nM and an IC50 (Homo sapiens, PER-624) of 524 nM. For the same compound, the IC50 (Homo sapiens, PER-704) was 658 nM, the IC50 (Homo sapiens, Pfeiffer) was 421 nM and the IC50 (Homo sapiens, RCK8, RCK8) was 529 nM. For the same compound, the IC50 (Homo sapiens, RL) was 11.8 nM, the IC50 (Homo sapiens, RPMI-8226, RPMI-8226) was 21.7 nM and the IC50 (Homo sapiens, RPMI-8226-DOX) was 29300 nM. The IC50 (Homo sapiens, RPMI-8226-LR5) was 286 nM, the IC50 (Homo sapiens, SCaBER) was 198 nM and the IC50 (Homo sapiens, SF-295, SF295) was 24700 nM. The IC50 (Homo sapiens, SF-539, SF539) was 60.9 nM, the IC50 (Homo sapiens, SK-BR-3, SK-BR-3) was 73.1 nM and the IC50 (Homo sapiens, SU-DHL10, SU-DHL-10) was 36.7 nM. For the same compound, the IC50 (Homo sapiens, SU-DHL-2, SU-DHL-2) was 34.1 nM, the IC50 (Homo sapiens, SU-DHL-4, SU-DHL-4) was 492 nM and the IC50 (Homo sapiens, SU-DHL-5, SU-DHL-5) was 28.3 nM. The IC50 (Homo sapiens, SU-DHL-6, SU-DHL-6) was 3.9 nM, the IC50 (Homo sapiens, SU-DHL-8, SU-DHL-8) was 52.5 nM and the IC50 (Homo sapiens, SU-DHL-16, SU-DHL-16) was 98.9 nM. For the same compound, the IC50 (Homo sapiens, SW780, SW-780) was 290 nM, the IC50 (Homo sapiens, T-24, T24) was 765 nM and the IC50 (Homo sapiens, U2932, U2932) was 52.5 nM. For the same compound, the IC50 (Homo sapiens, U-87 MG) was 39.6 nM, the IC50 (Homo sapiens, U-2940, U2940) was 14800 nM and the IC50 (Homo sapiens, UMUC3, UM-UC-3) was 29300 nM. The IC50 (Homo sapiens, WSU-NHL) was 8.4 nM, the IC50 (Homo sapiens, WSUDLCL2, WSU-DLCL2) was 81.7 nM and the IC50 (Homo sapiens, ZR-75-1, ZR-75-1) was 11000 nM. The IC50 (J82) was 29300 nM, the IC50 (KMS-11) was 66 nM and the IC50 (LN-229) was 254 nM. For the same compound, the IC50 (LP1) was 1940 nM, the IC50 (MAVER-1) was 85 nM and the IC50 (MDA-MB-231) was 544 nM. For the same compound, the IC50 (MDA-MB-453) was 29 nM, the IC50 (MDA-MB-468) was 57 nM and the IC50 (MINO) was 130 nM and > 100 nM. The IC50 (NCI-H526-R) was 344 nM, the IC50 (NCI-H526) was 275 nM and the IC50 (PER-403) was 38 nM. For the same compound, the IC50 (PER-624) was 524 nM, the IC50 (PER-704) was 658 nM and the IC50 (RCK8) was 529 nM. It also gave an IC50 (RL) of 14 nM, an IC50 (SF295) of 24700 nM and an IC50 (SF539) of 61 nM. It also gave an IC50 (SK-BR-3) of 73 nM, an IC50 (SU-DHL-2) of 28 nM and an IC50 (SU-DHL-4) of 492 nM. For the same compound, the IC50 (SU-DHL-6) was 4 nM, the IC50 (SU-DHL-8) was 53 nM and the IC50 (SU-DHL-10) was 54 nM. It also gave an IC50 (SU-DHL-16) of 99 nM, an IC50 (ScaBER) of 198 nM and an IC50 (T24) of 765 nM. The IC50 (U2932) was 53 nM, the IC50 (U2940) was 10200 nM and the IC50 (U-87MG) was 40 nM. The IC50 (WSU-DLCL2) was 82 nM, the IC50 (WSU-NHL) was 8 nM and the gIC100 (Z-138) was 80.7 nM.
